Experimental findings from US20190001002A1, “DRUG DESIGN FOR APPLICATION-DEPENDENT PAYLOAD, CONTROLLED PHARMACOKINETIC DISTRIBUTION, AND RENAL CLEARANCE” (General Electric Company, priority 2017, published 2019) are described below.

Like-named read-outs stand apart in the source and are kept apart here. Where only a bound is given, the exact number is not on record here.

The nature of series [1]: Contrast-enhanced liver CT scans of swine in fat-equivalent encasements, multi-reader image quality assessment. The class given is in vivo. The conditions noted are these: swine CT in adipose-equivalent encasements, relative to TaCZ, FIG. 6. As to the method: The scans were performed one day to one week apart, and the scan sequence was randomized. During scanning, the pigs were encased in plastic fat-equivalent encasements to emulate a range of large patient sizes. Scans were performed in the pigs' livers at several time points from 30 to 300 seconds after injection. Image quality at each time point was graded by radiologists using predefined criteria such as image contrast in specified vessels.
In FIG. 6, images 220 on the left were acquired using a conventional iodinated contrast agent, iopromide, while images 220 on the right were acquired using the TaCZ nanoparticle contrast agent described above. Vertically, the images are arranged based on patient size.
In FIG. 7, the results of the multi-reader assessment are provided in graphical form.

A short description of series [2]: Pharmacokinetic modeling of active element (iodine or tantalum) concentration in pig blood/plasma after contrast agent injection. The class given is in vivo. The conditions noted are these: plasma, other: injection. The source says: Given this illustration of endothelial permeability, it may be appreciated that, immediately after administration, small-molecule contrast agents begin to distribute from the blood pool into interstitial fluid. Due to this “distribution phase”, the concentration of the contrast agent in the blood pool becomes immediately diluted by a factor of two or more in the first minutes after injection. This is illustrated in FIG. 3 where the concentration of the contrast agent iopromide in pig plasma is illustrated as a function of time, with both a distribution phase and elimination phase being evident.
This distribution occurs at a relatively fast rate, with a half-life (T½a) on the order of minutes and is denoted as the distribution phase in FIG. 3. […] Therefore, the concentration of the molecule in the blood would decrease approximately four fold in much less than 10 minutes due to this initial distribution process alone. However, the drug is simultaneously cleared from the blood by the kidneys at a slower rate, with a T½ on the order of 1-2 hours (denoted as the elimination phase in FIG. 3), resulting in an additional lowering of the concentration in the blood.
In a separate analysis, PK modeling was obtained by analyzing the concentration of the active element (iodine or tantalum) in blood samples taken from 2 to 240 minutes after contrast agent injection. […]

Usually half-life stands for the time needed for the level to fall by half in the phase considered. As to `COCC(=O)Nc1c(I)c(C(=O)NCC(O)CO)c(I)c(C(=O)N(C)CC(O)CO)c1I` (stereo not drawn) [iopromide], the “image contrast enhancement as patient size (and X-ray energy) increases” value in series [1] is reported as “decreases”. Also, the half-life in series [2] (FIG. 3, read-out: distribution-phase half-life (T½a) in plasma) is less than 0.0833 h; in series [2] (cleared from the blood by the kidneys, FIG. 3, read-out: clearance half-life T½ (elimination phase)) it was 1 to 2 h.
